Reference: patent publication US20070167399A1, “Therapeutic drug for traumatic neural disease (disorder) and/or motor function disorder” (Glycoscience Laboratories, Inc., priority 2006, published 2007)

Assays:
[1] = system: rat spinal cord injury model; experiment: Hind limb motor function (BBB scale) in rat spinal cord injury model, crush method with forceps; assay type: in vivo; settings: 60 μg/animal into the dura, seventh day after spinal cord injury, compared with physiological saline-administered group
Description: (§1) A spinal cord injury model (crush model with forceps) was prepared as described below. Twelve-week-old male Wistar rats were used as experimental animals. The animals were shaved from neck to hip with an electric clipper under pentobarbital anesthesia (50 mg/kg body weight) and the skin was cleansed with 70% ethanol and Isodine (product of Meiji Seika Kaisha, Ltd.). After dorsal skin incision, the thoracic spine from T5 to T10 was exposed, the sixth thoracic spine (T6 thoracic spine) was subjected to hemi-laminectomy, and a small incision was made on the dura. Following local anesthesia with Xylocaine (Astra Zeneca), a forceps (with the tip trimmed to 0.3 mm) was inserted at the position of T6 until its tip reached the vertebral body, and the spinal cord was crushed by sandwiching it from both sides for 10 sec. […]
After injury of the spinal cord, the hind limb motor function was assessed daily for 7 days by two independent blind examiners according to the method of Basso et al. (refer to Basso D M et al (1995), (1996)) using Basso-Beeattie-Bresnahan (BBB) Scale, and their average score was taken as a final assessment score. […]
The BBB score was evaluated using Tukey's nonparametric multiple comparison test.

[2] = system: rat spinal cord injury model; experiment: Spinal cord evoked potential (SCEP) in rat spinal cord injury model, crush method with forceps; assay type: in vivo; settings: 60 μg/animal into the dura, seventh day after spinal cord injury, compared with saline-administered group
Description: as §1
On the seventh day after the injury of the spinal cord, endotracheal intubation was performed into the experimental animal under halothane anesthesia (4.0% at the beginning, 1.0% during maintenance). […] Catheter electrodes were inserted into the experimental animal from the space between the second/third cervical vertebrae and the space between the 13th thoracic vertebra/first lumbar vertebra, and spinal cord evoked potential (SCEP) was measured with an electromyograph (Counterpoint, Dantec) after applying a supramaximal stimulus (stimulus frequency; 1 Hz, duration; 0.05 msec). […]

interleukin-12 (IL-12) = settings: reported by Asari et al. (Xu H et al. (2005)); cited from earlier work
MRL-lpr/lpr mouse = settings: administration of L4; Xu H et al. (2005); cited from earlier work

In the case of `CC(=O)N[C@H]1C(O)O[C@H](COS(=O)(=O)O)[C@@H](O[C@@H]2O[C@H](COS(=O)(=O)O)[C@H](O)[C@H](O)[C@H]2O)[C@@H]1O` (stereo partly drawn) [L4, Gal(6S)β1-4GlcNAc(6S)], the “hind limb motor function (BBB score)” value [1] is given as “significant recovery in hind limb motor function (P<0.001)”, the “spinal cord evoked potential (SCEP) amplitude” value [2] is given as “a tendency for a recovery in the SCEP amplitude” and the “effect on interleukin-12 (IL-12) expression” value (interleukin-12 (IL-12)) is given as “has an inhibitory effect on interleukin-12 (IL-12) expression”. For the same molecule, the “IL-12 concentration in the blood” value (MRL-lpr/lpr mouse) was “reduces IL-12 concentration in the blood”, the “cell death of T lymphocytes” value (MRL-lpr/lpr mouse) was “induces cell death of T lymphocytes” and the “size of lymphatic organs (lymph node and spleen)” value (MRL-lpr/lpr mouse) was “causes shrinking of lymphatic organs”.
